In ChEMBL document CHEMBL5113405, “Discovery, enantioselective synthesis of myrtucommulone E analogues as tyrosyl-DNA phosphodiesterase 2 inhibitors and their biological activities” (Eur J Med Chem, 2022):
Calls of active or inactive are those of the source. The rule behind the calls is not given here.

Legend:
DU-145 [1] = test: Cytotoxicity against human DU-145 cells assessed as cell growth inhibition for 72 hrs by MTT assay; assay type: functional
A549 = test: Cytotoxicity against human A549 cells assessed as cell growth inhibition for 72 hrs by MTT assay; assay type: functional
[2] = biological target: T1, Tyrosyl-DNA phosphodiesterase 2 (Homo sapiens, UniProt O95551); test: Inhibition of N-terminal His-tagged human TDP2 expressed in Escherichia coli BL21 using 4-nitrophenyl phenylphosphonate as substrate incubated for 60 mins by EDTA based chromogenic assay
T1 sequence (O95551 whole entry): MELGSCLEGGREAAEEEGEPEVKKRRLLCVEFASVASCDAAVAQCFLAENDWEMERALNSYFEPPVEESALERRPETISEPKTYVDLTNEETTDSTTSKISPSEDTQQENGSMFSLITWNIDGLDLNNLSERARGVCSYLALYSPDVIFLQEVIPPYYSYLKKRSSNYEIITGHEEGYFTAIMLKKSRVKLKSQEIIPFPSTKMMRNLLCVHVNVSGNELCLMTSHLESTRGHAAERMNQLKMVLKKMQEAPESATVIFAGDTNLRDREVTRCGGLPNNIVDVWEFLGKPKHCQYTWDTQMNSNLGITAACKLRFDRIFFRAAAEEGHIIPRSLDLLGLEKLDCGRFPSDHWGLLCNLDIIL

DU-145 [3] = test: Cytotoxicity against human DU-145 cells assessed as cell growth inhibition at 10 uM for 72 hrs by MTT assay; assay type: functional
[4] = Induction of reactive oxygen species production assessed as increase in hydrogen peroxide production […] in presence of DTT by redox cycling assay; assay type: functional

SMILES	GI50 (DU-145 [1]; Homo sapiens, DU-145, 72 h) [µM]	GI50 (A549; Homo sapiens, A549, 72 h) [µM]	IC50 [2] [µM]	GI50 (DU-145 [1]; 72 h) [µM]	GI50 (A549; 72 h) [µM]	inhibition at 10 µM (DU-145 [3]) [%]	Activity [4]
COc1c(C(=O)C(C)C)c2c(c3c1[C@@H](C(C)C)C1=C(O3)C(C)(C)C(=O)C(C)(C)C1=O)[C@H](C(C)C)C1=C(O2)C(C)(C)C(=O)C(C)(C)C1=O (racemic)	13	31	55	–	–	–	–
CC(C)C(=O)c1c(O)c2c(c3c1OC1=C(C(=O)C(C)(C)C(=O)C1(C)C)[C@H]3C(C)C)OC1=C(C(=O)C(C)(C)C(=O)C1(C)C)[C@@H]2C(C)C	–	–	50	41	60	–	–
CC(C)C(=O)c1c(O)c2c(c3c1OC1=C(C(=O)C(C)(C)C(=O)C1(C)C)[C@@H]3C(C)C)OC1=C(C(=O)C(C)(C)C(=O)C1(C)C)[C@@H]2C(C)C	–	–	48	15	28	–	–
CC(C)[C@@H]1C2=C(Oc3c1c(OCCCN(C)C)cc1c3[C@@H](C(C)C)C3=C(O1)C(C)(C)C(=O)C(C)(C)C3=O)C(C)(C)C(=O)C(C)(C)C2=O	23	46	10	–	–	–	–
COc1cc(O)c2c(c1C(=O)C(C)C)OC1=C(C(=O)C(C)(C)C(=O)C1(C)C)[C@@H]2C(C)C	28	50	> 100	–	–	–	–
CC(C)[C@@H]1C2=C(Oc3c1c(O)cc1c3[C@H](C(C)C)C3=C(O1)C(C)(C)C(=O)C(C)(C)C3=O)C(C)(C)C(=O)C(C)(C)C2=O	26	56	36	–	–	–	–
CC(C)[C@@H]1C2=C(Oc3c1c(OCCCN1CCCC1)cc1c3[C@@H](C(C)C)C3=C(O1)C(C)(C)C(=O)C(C)(C)C3=O)C(C)(C)C(=O)C(C)(C)C2=O	38	50	19	–	–	–	–
CC(C)[C@@H]1C2=C(Oc3cc(O)c4c(c31)OC1=C(C(=O)C(C)(C)C(=O)C1(C)C)[C@@H]4C(C)C)C(C)(C)C(=O)C(C)(C)C2=O	28	32	34	–	–	–	–
COc1cc([C@@H]2c3cc4c(cc3[C@@H](O[C@@H]3O[C@@H]5CO[C@@H](C)O[C@H]5[C@H](O)[C@H]3O)[C@H]3COC(=O)[C@H]23)OCO4)cc(OC)c1O [ETOPOSIDE]	13	10	–	–	–	47	–
CC(C)[C@@H]1C2=C(Oc3c1c(OCCN1CCOCC1)cc1c3[C@@H](C(C)C)C3=C(O1)C(C)(C)C(=O)C(C)(C)C3=O)C(C)(C)C(=O)C(C)(C)C2=O	27	39.6	25	–	–	–	–
CC(C)[C@@H]1C2=C(Oc3c1c(OCCCc1ccccc1)cc1c3[C@@H](C(C)C)C3=C(O1)C(C)(C)C(=O)C(C)(C)C3=O)C(C)(C)C(=O)C(C)(C)C2=O	29	43	26	–	–	–	–
CC1(C)CCC2=C(O1)c1ccccc1C(=O)C2=O	–	–	–	–	–	–	Active
CC(C)[C@@H]1C2=C(Oc3c1c(OCCCN1CCOCC1)cc1c3[C@@H](C(C)C)C3=C(O1)C(C)(C)C(=O)C(C)(C)C3=O)C(C)(C)C(=O)C(C)(C)C2=O	26	65.7	20	–	–	–	–
CCN(CC)CCOc1cc2c(c3c1[C@H](C(C)C)C1=C(O3)C(C)(C)C(=O)C(C)(C)C1=O)[C@@H](C(C)C)C1=C(O2)C(C)(C)C(=O)C(C)(C)C1=O	23	46	53	–	–	–	–
CC(C)[C@@H]1C2=C(Oc3c1c(OCCN1CCCC1)cc1c3[C@@H](C(C)C)C3=C(O1)C(C)(C)C(=O)C(C)(C)C3=O)C(C)(C)C(=O)C(C)(C)C2=O	22	46	22	–	–	–	–
COc1c(C(=O)C(C)C)c2c(c3c1[C@@H](C(C)C)C1=C(O3)C(C)(C)C(=O)C(C)(C)C1=O)[C@@H](C(C)C)C1=C(O2)C(C)(C)C(=O)C(C)(C)C1=O (racemic)	20	32	57	–	–	–	–
CC(C)CCOc1cc2c(c3c1[C@H](C(C)C)C1=C(O3)C(C)(C)C(=O)C(C)(C)C1=O)[C@@H](C(C)C)C1=C(O2)C(C)(C)C(=O)C(C)(C)C1=O	19	37	26	–	–	–	–
CC(C)[C@@H]1C2=C(Oc3c1c(OCCC1OCCO1)cc1c3[C@@H](C(C)C)C3=C(O1)C(C)(C)C(=O)C(C)(C)C3=O)C(C)(C)C(=O)C(C)(C)C2=O	12	21	17	–	–	–	–
CC(C)[C@@H]1C2=C(Oc3c1c(OCc1ccccc1)cc1c3[C@@H](C(C)C)C3=C(O1)C(C)(C)C(=O)C(C)(C)C3=O)C(C)(C)C(=O)C(C)(C)C2=O	19	36	54	–	–	–	–

SMILES	GI50 (DU-145 [1]; Homo sapiens, DU-145, 72 h) [µM]	GI50 (A549; Homo sapiens, A549, 72 h) [µM]	IC50 [2] [µM]	GI50 (DU-145 [1]; 72 h) [µM]	GI50 (A549; 72 h) [µM]	inhibition at 10 µM (DU-145 [3]) [%]	Activity [4]
CC(C)C1C2=C(Oc3c1c(O)cc1c3C(C(C)C)C3=C(O1)C(C)(C)C(=O)C(C)(C)C3=O)C(C)(C)C(=O)C(C)(C)C2=O (racemic; form 2)	–	–	32	15	44	–	–
CC(C)C1C2=C(Oc3c1c(O)cc1c3C(C(C)C)C3=C(O1)C(C)(C)C(=O)C(C)(C)C3=O)C(C)(C)C(=O)C(C)(C)C2=O (racemic; form 1)	13	26	29	–	–	–	–
CC(C)[C@@H]1C2=C(Oc3c1c(OCC1CC1)cc1c3[C@@H](C(C)C)C3=C(O1)C(C)(C)C(=O)C(C)(C)C3=O)C(C)(C)C(=O)C(C)(C)C2=O	13	24	42	–	–	–	–
CC(C)[C@@H]1C2=C(Oc3c1c(O)cc1c3[C@@H](C(C)C)C3=C(O1)C(C)(C)C(=O)C(C)(C)C3=O)C(C)(C)C(=O)C(C)(C)C2=O	23	27	25	–	–	–	–
COc1ccc(COc2cc3c(c4c2[C@H](C(C)C)C2=C(O4)C(C)(C)C(=O)C(C)(C)C2=O)[C@@H](C(C)C)C2=C(O3)C(C)(C)C(=O)C(C)(C)C2=O)cc1	40	32	56	–	–	–	–
CC(C)C(=O)c1c(O)c2c(c3c1OC1=C(C(=O)C(C)(C)C(=O)C1(C)C)[C@H]3C(C)C)OC1=C(C(=O)C(C)(C)C(=O)C1(C)C)[C@H]2C(C)C	38	65	32	–	–	–	–
CC(C)C(=O)c1c(O)c2c(c3c1OC1=C(C(=O)C(C)(C)C(=O)C1(C)C)[C@@H]3C(C)C)OC1=C(C(=O)C(C)(C)C(=O)C1(C)C)[C@@H]2C(C)C (racemic)	26	37	33	–	–	–	–
CC(C)C(=O)c1c(O)c2c(c3c1OC1=C(C(=O)C(C)(C)C(=O)C1(C)C)[C@@H]3C(C)C)OC1=C(C(=O)C(C)(C)C(=O)C1(C)C)[C@H]2C(C)C	31	62	39	–	–	–	–
COc1cc(O)c2c(c1C(=O)C(C)C)OC1=C(C(=O)C(C)(C)C(=O)C1(C)C)[C@H]2C(C)C	16	30	> 100	–	–	–	–
CC(C)[C@@H]1C2=C(Oc3c1c(OCCCN1CCN(C)CC1)cc1c3[C@@H](C(C)C)C3=C(O1)C(C)(C)C(=O)C(C)(C)C3=O)C(C)(C)C(=O)C(C)(C)C2=O	51	63	20	–	–	–	–
CC(C)Oc1cc2c(c3c1[C@H](C(C)C)C1=C(O3)C(C)(C)C(=O)C(C)(C)C1=O)[C@@H](C(C)C)C1=C(O2)C(C)(C)C(=O)C(C)(C)C1=O	20	33	28	–	–	–	–
CC(C)C(=O)c1c(O)c2c(c3c1OC1=C(C(=O)C(C)(C)C(=O)C1(C)C)[C@H]3C(C)C)OC1=C(C(=O)C(C)(C)C(=O)C1(C)C)[C@@H]2C(C)C (racemic)	–	–	41	17	26	–	–
Cc1ccc(COc2cc3c(c4c2[C@H](C(C)C)C2=C(O4)C(C)(C)C(=O)C(C)(C)C2=O)[C@@H](C(C)C)C2=C(O3)C(C)(C)C(=O)C(C)(C)C2=O)cc1	15	29	31	–	–	–	–
CCOC(CCCOc1cc2c(c3c1[C@H](C(C)C)C1=C(O3)C(C)(C)C(=O)C(C)(C)C1=O)[C@@H](C(C)C)C1=C(O2)C(C)(C)C(=O)C(C)(C)C1=O)OCC	27	62	41	–	–	–	–
CC(COc1cc2c(c3c1[C@H](C(C)C)C1=C(O3)C(C)(C)C(=O)C(C)(C)C1=O)[C@@H](C(C)C)C1=C(O2)C(C)(C)C(=O)C(C)(C)C1=O)CN(C)C (some centres not stated)	28	46	12	–	–	–	–
CC(C)[C@H]1C2=C(Oc3c1c(O)cc1c3[C@@H](C(C)C)C3=C(O1)C(C)(C)C(=O)C(C)(C)C3=O)C(C)(C)C(=O)C(C)(C)C2=O	16	38	32	–	–	–	–
CCOc1cc2c(c3c1[C@H](C(C)C)C1=C(O3)C(C)(C)C(=O)C(C)(C)C1=O)[C@@H](C(C)C)C1=C(O2)C(C)(C)C(=O)C(C)(C)C1=O	12	24	21	–	–	–	–
CC(C)[C@@H]1C2=C(Oc3c1c(OCCN(C)C)cc1c3[C@@H](C(C)C)C3=C(O1)C(C)(C)C(=O)C(C)(C)C3=O)C(C)(C)C(=O)C(C)(C)C2=O	22	54	11	–	–	–	–
CCN(CC)CCCOc1cc2c(c3c1[C@H](C(C)C)C1=C(O3)C(C)(C)C(=O)C(C)(C)C1=O)[C@@H](C(C)C)C1=C(O2)C(C)(C)C(=O)C(C)(C)C1=O	25	85	20	–	–	–	–
